The target of the assay is T1, AR W741C (Homo sapiens, UniProt P10275, W742C).
T1 sequence (P10275 1-920 W742C): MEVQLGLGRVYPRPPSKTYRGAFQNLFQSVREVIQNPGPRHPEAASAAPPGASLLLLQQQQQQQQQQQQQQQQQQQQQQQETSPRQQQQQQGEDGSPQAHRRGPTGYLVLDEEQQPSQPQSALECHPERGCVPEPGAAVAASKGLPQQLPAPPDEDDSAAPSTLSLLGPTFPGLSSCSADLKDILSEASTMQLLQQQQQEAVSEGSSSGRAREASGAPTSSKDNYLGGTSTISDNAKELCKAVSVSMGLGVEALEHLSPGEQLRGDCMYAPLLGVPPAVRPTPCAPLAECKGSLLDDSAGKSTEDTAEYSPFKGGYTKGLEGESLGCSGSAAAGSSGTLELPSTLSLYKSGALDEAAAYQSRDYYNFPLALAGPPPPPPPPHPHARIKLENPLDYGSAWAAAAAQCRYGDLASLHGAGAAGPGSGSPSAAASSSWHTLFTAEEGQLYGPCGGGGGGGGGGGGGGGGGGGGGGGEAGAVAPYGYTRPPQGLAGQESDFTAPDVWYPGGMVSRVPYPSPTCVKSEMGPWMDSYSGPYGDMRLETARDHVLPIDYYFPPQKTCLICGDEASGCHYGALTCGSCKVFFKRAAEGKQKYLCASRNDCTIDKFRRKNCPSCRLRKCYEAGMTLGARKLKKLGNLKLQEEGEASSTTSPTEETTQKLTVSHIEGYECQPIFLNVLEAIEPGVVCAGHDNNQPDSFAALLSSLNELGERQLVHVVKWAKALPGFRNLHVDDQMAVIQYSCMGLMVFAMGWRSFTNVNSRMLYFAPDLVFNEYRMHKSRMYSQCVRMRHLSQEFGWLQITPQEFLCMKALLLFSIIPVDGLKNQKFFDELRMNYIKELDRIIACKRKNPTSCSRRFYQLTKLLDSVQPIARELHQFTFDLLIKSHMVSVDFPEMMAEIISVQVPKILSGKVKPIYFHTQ
In words: cell-based. The following applies: IC50 (antagonistic activity).

Broadly, the IC50 is the concentration at which inhibition is half-maximal. A higher IC50 goes with lower potency. In the case of `CC(C)(O)COc1ccc(CN2C(=S)N(c3ccc(C#N)c(C(F)(F)F)c3)C(=O)C2(C)C)cn1` [BAY 1024767], the IC50 is, setting by setting: (R1881 0.1 nM) 49 nM; (R1881 1 nM) 190 nM; (R1881 10 nM) 890 nM.

The record behind these values is paper PMC4868737, “BAY 1024767 blocks androgen receptor mutants found in castration-resistant prostate cancer patients” (Oncotarget, 2016).
